Data from PMC8619673 (Cells, 2021).

What was measured:
[1] = test system: TRKB; test: Western blot, TRKB and p-TRKB; assay type: cell-based, Human; conditions: 5 µM; for p-TRKB (Y516) protein level relative to uninduced cells (100%): induced untreated 40%; for p-TRKB (Y817) protein level relative to uninduced cells (100%): induced untreated 71%; for TRKB expression relative to uninduced cells (100%): scrambled shRNA-infected Aβ-expressing cells, untreated 80%
Protocol: Cellular proteins were prepared using a lysis buffer containing NaCl (150 mM), ethylene diamine tetraacetic acid (EDTA, 1 mM, pH8.0), Tris-HCl (50 mM, pH8.0), ethylene glycol tetraacetic acid (EGTA, 1 mM, pH8.0), sodium dodecyl sulfate (SDS, 0.1%), sodium deoxycholate (SD, 0.5%), Triton X-100 (1%), and protease (Sigma-Aldrich), and phosphatase (Abcam, Cambridge, MA, USA) inhibitor cocktails. After quantitation by protein assay kit (Bio-Rad, Hercules, CA, USA), 20 µg proteins were separated by SDS-polyacrylamide (10%) gel electrophoresis and transferred to polyvinylidene difluoride (PVDF) membranes (Sigma-Aldrich) using a Mini Trans-Blot cell (Bio-Rad). After blocking, the membrane was probed with anti-TRKB, anti-p-TRKB (Y516), anti-p-TRKB (Y817) (1:500; Cell Signaling, Danvers, MA, USA), anti-ERK, anti-p-ERK (T202/Y204) (1:1000; Cell Signaling), anti-AKT, anti-p-AKT (S473) (1:1000; Cell Signaling), anti-CREB, anti-p-CREB (S133) (1:1000; Millipore, Billerica, MA, USA), anti-BDNF, anti-BCL2 (1:500; Santa Cruz Biotechnology, Santa Cruz, CA, USA), anti-BAX (1:1000; Cell Signaling), anti-β-tubulin (1:500; Sigma-Aldrich), or anti-GAPDH (1:1000, MDBio, Taipei, Taiwan) antibody. The immune complexes were detected using goat anti-mouse or goat anti-rabbit IgG antibody conjugated with horseradish peroxidase (1:5000; GeneTex, Irvine, CA, USA) and chemiluminescent substrate (Millipore).
Lentiviral short hairpin RNA (shRNA) targeting TRKB (TRCN0000002243, TRCN0000002245, and TRCN0000002246) and a negative-scrambled control (TRC2.Void) were obtained from the National RNAi Core Facility, IMB/GRC, Academia Sinica (Taipei, Taiwan). As described, cells were plated on 6- or 24-well plates, with retinoic acid added on day 1. Cells were infected with lentivirus (multiplicity of infection, 3 for each shRNA), with polybrene (8 µg/mL; Sigma-Aldrich) on the next day. Cells were pretreated with tested compounds (5 µM) for 8 h after changing medium, followed by doxycycline on day 3. Cells were collected for further analysis on day 9. The hairpin sequences of targeting shRNA were below: • TRCN0000002243: 5’-[…]ctcgag[…]-3’ • TRCN0000002245: 5’-[…]ctcgagATGTT-[…]-3’ • TRCN0000002246: 5’-[…]ctcgag[…]-3’ • TRC2.Void: 5’-[…]ctcgag[…]-3’

[2] = test system: Aβ-GFP RNA; test: Real-time PCR of Aβ-GFP RNA; assay type: cell-based, Human; conditions: 5 μM; untreated 28.6; not significantly affected
Text: RNA was extracted using TRIzol reagent (Invitrogen, Carlsbad, CA, USA), followed by treatment with DNase I (Stratagene, La Jolla, CA, USA). cDNA was synthesized by SuperScript™ III reverse transcriptase (Invitrogen) according to manufacturer’s instruction and used to determine Aβ-GFP mRNA expression by StepOnePlus™ Real-time PCR system (Applied Biosystems, Foster City, CA, USA) using customized GFP primers (forward primer: 5′-[…]-3′, reverse primer: 5′-[…]-3′), FAM/NFQ probe (5′-[…]-3′), and TaqMan hypoxanthine phosphoribosyltransferase 1 (HPRT1) endogenous control (VIC/MGB probe, 4326321E) (Applied Biosystems). Fold change was calculated using the formula 2^ΔCt, ΔCT = CT (HPRT1)—CT (GFP), in which CT indicates the number of threshold cycles.

[3] = 1,1-diphenyl-2-picrylhydrazyl radical scavenging; conditions: data not shown
[4] = molecular target: T1, Aβ42 peptide (Homo sapiens, UniProt P05067); test: Thioflavin T aggregation assay; assay type: biochemical
T1 construct: Aβ42 peptide (10 μM; Kelowna Int’l Scientific Inc., New Taipei City, Taiwan); purchased Kelowna Int’l Scientific Inc., New Taipei City, Taiwan
Protocol: To form Aβ aggregation, Aβ42 peptide (10 μM; Kelowna Int’l Scientific Inc., New Taipei City, Taiwan) was incubated with tested compounds (5–20 μM) in 150 mM NaCl and 20 mM Tris-HCl (pH8.0) at 37 °C for 48 h. Thioflavin T (10 μM; Sigma-Aldrich) was added to the Aβ mixture and incubated at room temperature for 5 min. The fluorescence intensity was recorded at 420 nm excitation and 485 nm emission by an FLx800 microplate reader (Bio-Tek, Winooski, VT, USA). Half maximal effective concentration (EC50) was estimated by a method of interpolation.

T1 sequence (P05067 672-713 limits assumed): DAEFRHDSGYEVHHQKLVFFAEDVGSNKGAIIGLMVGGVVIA

Row | SMILES | p-TRKB (Y516) protein level relative to uninduced cells (100%) [1] | p-TRKB (Y817) protein level relative to uninduced cells (100%) [1] | TRKB expression relative to uninduced cells (100%) [1] | Relative Aβ-GFP/HPRT1 RNA level [2] | 1,1-diphenyl-2-picrylhydrazyl radical scavenging activity [3] | Aβ aggregation inhibition (in words) ([4]; compound 20 μM, thioflavin T assay) | Thioflavin T fluorescence (Aβ aggregation) ([4]; compound 20 µM, Aβ42 10 μM, 37 °C 2 days, 621 AU without compound, 151 AU without incubation) [AU]
1 | CCOC(=O)c1cc2c(O)cccc2oc1=O [ZN014, ethyl 5-hydroxy-2-oxo-2H-chromene-3-carboxylate] | 92–100% | 94–108% | 77–81% | 29.2–30.0 folds of induction | no 1,1-diphenyl-2-picrylhydrazyl radical scavenging activity | did not inhibit Aβ aggregation | –
2 | O=C(/C=C/c1ccccc1O)c1c(O)c2ccccc2oc1=O [ZN015, (E)-4-hydroxy-3-(3-(2-hydroxyphenyl)acryloyl)-2H-chromen-2-one] | 92–100% | 94–108% | 77–81% | 29.2–30.0 folds of induction | no 1,1-diphenyl-2-picrylhydrazyl radical scavenging activity | – | 403
